Measured values taken from patent publication US11964988B2, “Fused heterocyclic compounds as RET kinase inhibitors” (ARRAY BIOPHARMA INC., priority 2018, dated 2024).
Residue numbers refer to the chain shown, from its start.

Key:
[1] = molecular target: G810S mutant RET kinase (Homo sapiens, UniProt P07949, G810S); test: biochemical;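 note: HTRF KinEASE-TK kinase assay with recombinant enzyme, 1 h at 22 °C, dual-wavelength ratiometric read-out, percent of control (DMSO-only = 100, pre-quenched reaction = 0)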
Method: The potency of compounds inhibiting several different RET kinase forms (Wild Type, V804M, G810R, & G810S) were determined using CisBio's HTRF® KinEASE™-TK assay technology. […] After a 1 hour incubation at 22° C., the extent of reaction was determined using a PerkinElmer EnVision multimode plate reader via HTRF dual wavelength detection, and the percent of control (POC) was calculated using a ratiometric emission factor. One hundred POC was determined using DMSO only samples (no compound present), and 0 POC was determined using pre-quenched control reactions.
The potency of a compound inhibiting G810R or G810S mutant RET kinase was determined using CisBio's HTRF® KinEASE™-TK assay technology. The assays contained G810R or G810S mutant RET produced at Array Biopharma, Inc. (1 nM enzyme). […] After a 1-h incubation at 22° C., the extent of reaction was determined using a PerkinElmer EnVision multimode plate reader via HTRF dual wavelength detection, and the percent of control (POC) was calculated using a ratiometric emission factor. One hundred POC was determined using no test compounds, and 0 POC was determined using pre-quenched control reactions.

[2] = molecular target: RET kinase Wild Type (Homo sapiens, UniProt P07949); test: biochemical;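 note: HTRF kinase activity assay on RET enzyme, 1 h reaction at 22 °C, dual-wavelength readout as percent of control, DMSO-only wells as 100%, pre-quenched reactions as 0%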
[3] = molecular target: RET kinase V804M (Homo sapiens, UniProt P07949, V804M); test: RET Enzyme Assay (CisBio HTRF KinEASE-TK), V804M; format: biochemical; conditions: read-out: RET V804M Enz FRET IC50
[4] = molecular target: T1, HEK-293 cells expressing a G810S mutant RET Kif5b-RET fusion protein (Homo sapiens, UniProt P07949, G810S); test: RET G810S Mutant Cell Assay (phospho-RET Tyr1062); format: cell-based; conditions: HEK-293 Kif5b-RET G810S, 1 hour incubation, phospho-RET normalized to GAPDH
T1 construct: KIF5B (N-terminal portion incl. coiled-coil); expressed in transfected cells; host or cells: HEK-293
T1 sequence (P07949 713-1063 G810S limits assumed): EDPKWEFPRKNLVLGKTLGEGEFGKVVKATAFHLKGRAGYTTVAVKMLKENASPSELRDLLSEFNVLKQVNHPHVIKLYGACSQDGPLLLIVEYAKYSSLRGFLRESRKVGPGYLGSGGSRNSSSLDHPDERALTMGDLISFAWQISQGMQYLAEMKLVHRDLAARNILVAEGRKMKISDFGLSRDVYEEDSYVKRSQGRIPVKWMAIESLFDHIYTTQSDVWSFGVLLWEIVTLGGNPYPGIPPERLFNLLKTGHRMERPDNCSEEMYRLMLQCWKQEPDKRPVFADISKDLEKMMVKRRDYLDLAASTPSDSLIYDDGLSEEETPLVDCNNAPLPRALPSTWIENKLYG
Method: (§1) The cellular potency of compounds inhibiting RET kinase were determined in HEK-293 cells expressing a G810R or G810S mutant RET Kif5b-RET fusion protein. Briefly, HEK-293 cells expressing a G810R or G810S mutant RET Kif5b-RET fusion protein were plated at 50K cells/well in 96 well poly-D-Lysine coated plates the day prior to the assay. The cells were incubated for 1 hour with test compound in DMEM (Dulbecco's Modified Eagle Medium) at a final DMSO concentration of 0.5%. […] After 1 hour the media was removed, the cells were fixed with 3.8% formaldehyde for 20 min, washed with PBS, and permeabilized for 10 min with 100% methanol. The plates were then washed with PBS-0.05% Tween20, and blocked with LI-COR Blocking solution (LI-COR Catalog No. 927-40000) for 1 hour. Plates were washed with PBS-0.05% Tween20, then incubated with anti-phospho-RET (Tyr1062) (Santa Cruz Catalog No. sc-20252-R) antibody and anti-GAPDH (Millipore Catalog No. MAB374) antibody for 2 hours. The plates were washed with PBS-0.05% Tween20, and incubated with anti-rabbit 680 (Molecular Probes Catalog No. A21109) and anti-mouse 800 (LI-COR Catalog No. 926-32210) secondary antibodies for 1 hour. All antibodies were diluted in LI-COR Block containing 0.05% Tween. The plates were washed with PBS-0.05% Tween20,100 μL PBS was added to each well, and the plates were read on a LI-COR Aerius fluorescent plate reader. The phospho-RET signal was normalized to the GAPDH signal. […] The POC values are fit to a 4 parameter logistic curve. The IC50 value is the point where the curve crosses 50 POC.

[5] = molecular target: G810R mutant RET kinase (Homo sapiens, UniProt P07949, G810R); test: biochemical;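 note: HTRF KinEASE-TK enzymatic assay with 1 nM recombinant RET G810R, 1 h at 22 °C, dual-wavelength ratiometric readout, 100% control without compound, 0% from pre-quenched reactions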
[6] = molecular target: T2, HEK-293 cells expressing a Kif5b-RET fusion protein (Homo sapiens, UniProt P07949); test: RET Cell Assay (phospho-RET Tyr1062); format: cell-based; conditions: HEK-293 Kif5b-RET, 1 hour incubation, phospho-RET normalized to GAPDH; read-out: KIF5B-RET pTYR1062 Cell IC50
T2 construct: KIF5B (N-terminal portion incl. coiled-coil); expressed in transfected cells; host or cells: HEK-293; the other entry of the earlier key: KIF5B (P33176, Kinesin-1 heavy chain)
T2 sequence (P07949 713-1063 limits assumed): T1 sequence (P07949 713-1063 G810S limits assumed) with S98G
Method: as §1, with “a” for “a G810R or G810S mutant RET”, “PBS is” for “PBS was”, “values were” for “values are”

Chain of RET kinase Wild Type (P07949 29-1114): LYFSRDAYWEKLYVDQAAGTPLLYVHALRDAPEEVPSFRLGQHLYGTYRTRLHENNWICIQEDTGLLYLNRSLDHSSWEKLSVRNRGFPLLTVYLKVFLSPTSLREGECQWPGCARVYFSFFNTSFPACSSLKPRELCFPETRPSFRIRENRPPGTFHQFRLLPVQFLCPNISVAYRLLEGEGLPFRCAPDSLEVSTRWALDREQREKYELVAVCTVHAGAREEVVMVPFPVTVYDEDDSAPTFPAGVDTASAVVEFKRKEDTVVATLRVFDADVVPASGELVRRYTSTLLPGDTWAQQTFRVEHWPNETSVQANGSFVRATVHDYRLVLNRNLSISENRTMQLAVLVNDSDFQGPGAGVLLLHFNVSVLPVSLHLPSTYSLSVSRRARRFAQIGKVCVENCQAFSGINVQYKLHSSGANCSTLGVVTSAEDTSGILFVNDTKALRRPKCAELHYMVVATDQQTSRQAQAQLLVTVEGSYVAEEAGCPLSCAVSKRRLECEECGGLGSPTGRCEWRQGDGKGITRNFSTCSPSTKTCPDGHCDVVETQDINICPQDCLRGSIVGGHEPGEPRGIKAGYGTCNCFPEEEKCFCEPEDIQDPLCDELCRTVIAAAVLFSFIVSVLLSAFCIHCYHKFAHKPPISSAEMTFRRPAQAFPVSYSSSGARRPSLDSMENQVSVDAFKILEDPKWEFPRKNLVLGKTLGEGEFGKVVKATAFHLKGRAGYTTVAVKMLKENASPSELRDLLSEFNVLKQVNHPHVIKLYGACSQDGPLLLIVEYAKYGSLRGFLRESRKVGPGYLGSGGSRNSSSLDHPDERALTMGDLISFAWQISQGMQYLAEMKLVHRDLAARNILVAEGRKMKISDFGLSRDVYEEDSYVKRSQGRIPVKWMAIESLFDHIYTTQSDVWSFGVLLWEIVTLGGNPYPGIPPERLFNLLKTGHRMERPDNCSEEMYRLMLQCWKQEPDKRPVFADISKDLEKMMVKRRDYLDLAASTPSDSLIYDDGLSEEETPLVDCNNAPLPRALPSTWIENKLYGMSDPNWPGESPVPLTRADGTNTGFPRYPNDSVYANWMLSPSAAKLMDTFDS
Chain of G810R mutant RET kinase (P07949 29-1114 G810R): as the sequence (P07949 29-1114) above, with G782R counted along it
Chain of G810S mutant RET kinase (P07949 29-1114 G810S): as the sequence (P07949 29-1114) above, with G782S counted along it
Chain of RET kinase V804M (P07949 29-1114 V804M): as the sequence (P07949 29-1114) above, with V776M counted along it

| SMILES | IC50 [1] [nM] | IC50 [2] [nM] | IC50 [3] [nM] | IC50 [4] [nM] | IC50 [5] [nM] | IC50 [6] [nM] |
| --- | --- | --- | --- | --- | --- | --- |
| Nc1ncnc2c1c1c(n2C2CCC(O)C2)CCC(=O)c2c-1noc2C1CC1 (mixture of isomers) [Example 128, 11-Amino-3-cyclopropyl-7-(3-hydroxycyclopentyl)-6,7-dihydroisoxazolo[4″,3″:6′,7′]cyclohepta[1′,2′:4,5]pyrrolo[2,3-d]pyrimidin-4(5H)-one 2,2,2-trifluoroacetate] | 160 | 88 | 349 | 435 | 98 | 157 |
| CC(C)n1c2c(c3c(N)ncnc31)-c1cc3ccc(C(=O)Nc4ccn(-c5ccccc5)n4)cc3n1CCC2 [Example 100, 1-amino-5-isopropyl-N-(1-phenyl-1H-pyrazol-3-yl)-5,6,7,8-tetrahydropyrimido[5″,4″:4′,5′]pyrrolo[3′,2′: 3,4]azepino[1,2-a]indole-11-carboxamide] | 914 | 233 | 2860 | 15 | 1610 | 10 |
| CC(C)n1c2c(c3c(N)ncnc31)-c1c(Cl)c3ccc(C(=O)NC4CC4)cc3n1CCC2 [Example 102, 1-Amino-14-chloro-N-cyclopropyl-5-isopropyl-5,6,7,8-tetrahydropyrimido[5″,4″:4′,5′]pyrrolo[3′,2′:3,4]azepino[1,2-a]indole-11-carboxamide] | 183 | 128 | 483 | 86 | 760 | 35 |
| COC(=O)c1ccc(-n2c3c(c4c(N)ncnc42)-c2noc(C4CC4)c2C(O)CC3)cc1 (stereo not drawn) [Example 113, Methyl 4-(11-amino-3-cyclopropyl-4-hydroxy-5,6-dihydroisoxazolo[4″,3″:6′,7′]cyclohepta[1′,2′:4,5]pyrrolo[2,3-d]pyrimidin-7(4H)-yl)benzoate 2,2,2-trifluoroacetate] | 63 | 102 | 169 | 274 | 106 | 513 |
| Nc1ncnc2c1c1c(n2C2CCOC2)CCC(O)c2c-1noc2C1CC1 (stereo not drawn) [Example 121, 11-amino-3-cyclopropyl-7-(tetrahydrofuran-3-yl)-4,5,6,7-tetrahydro-isoxazolo[4″,3″:6′,7′]cyclohepta[1′,2′:4,5] pyrrolo[2,3-d]pyrimidin-4-ol] | 84 | 41 | 120 | 118 | 87 | 74 |
| Nc1ncnc2c1c1c(n2C(CF)CF)CCC(O)c2c-1noc2C1CC1 (stereo not drawn) [Example 122, 11-amino-3-cyclopropyl-7-(1,3-difluoropropan-2-yl)-4,5,6,7-tetrahydro-isoxazolo[4″,3″:6′,7′]cyclohepta[1′,2′:4,5] pyrrolo[2,3-d]pyrimidin-4-ol] | 26 | 14 | 38 | 77 | 28 | 31 |
| Nc1ncnc2c1c1c(n2[C@@H]2C[C@@H](O)[C@@H](O)C2)CCC(O)c2c-1noc2C1CC1 (stereo partly drawn) [Example 130, (1r,2s,4s)-4-(11-amino-3-cyclopropyl-4-hydroxy-5,6-dihydroisoxazolo[4″,3″:6′,7′]cyclohepta[1′,2′:4,5]pyrrolo[2,3-d]pyrimidin-7(4H)-yl)cyclopentane-1,2-diol] | 32 | 12 | 64 | 131 | 40 | 34 |
| Nc1ncnc2c1c1c(n2[C@H]2C[C@H](CO)C2)CCC(O)c2c-1noc2C1CC1 (stereo partly drawn) [Example 135, 11-Amino-3-cyclopropyl-7-((1r,3r)-3-(hydroxymethyl)cyclobutyl)-4,5,6,7-tetrahydroisoxazolo[4″,3″:6′,7′]cyclohepta[1′,2′:4,5]pyrrolo[2,3-d]pyrimidin-4-ol 2,2,2-trifluoroacetate] | 229 | 45 | 152 | 103 | 150 | 54 |
| COC(=O)[C@H]1C[C@@H](n2c3c(c4c(N)ncnc42)-c2noc(C4CC4)c2C(O)CC3)C1 (stereo partly drawn) [Example 137, Methyl (1s,3s)-3-(11-amino-3-cyclopropyl-4-hydroxy-5,6-dihydroisoxazolo[4″,3″:6′,7′]cyclohepta[1′,2′:4,5]pyrrolo[2,3-d]pyrimidin-7(4H)-yl)cyclobutane-1-carboxylate 2,2,2-trifluoroacetate] | 155 | 38 | 60 | 280 | 52 | 67 |
| Nc1ncnc2c1c1c(n2C2CCC2)CCC(O)c2c-1noc2C1CC1 (stereo not drawn) [Example 144, 11-Amino-7-cyclobutyl-3-cyclopropyl-4,5,6,7-tetrahydroisoxazolo[4″,3″:6′,7]cyclohepta[1′,2′:4,5]pyrrolo[2,3-d]pyrimidin-4-ol 2,2,2-trifluoroacetate] | 101 | 24 | 57 | 177 | 61 | 40 |
| CC1(n2c3c(c4c(N)ncnc42)-c2noc(C4CC4)c2C(O)CC3)CC1 (stereo not drawn) [Example 149, 11-Amino-3-cyclopropyl-7-(1-methylcyclopropyl)-4,5,6,7-tetrahydroisoxazolo[4″,3″:6′,7′]cyclohepta[1′,2′:4,5]pyrrolo[2,3-d]pyrimidin-4-ol] | 41 | 7 | 22 | 20 | 70 | 2 |
